This note sets out measurements from PubChem BioAssay AID272 (DTP/NCI, 2004).

The assay deals with Lewis lung carcinoma i.m., BDF1 mice, T/C %. Nature of the assay: NCI In Vivo Anticancer Drug Screen. Data for tumor model Lewis Lung Carcinoma (intramuscular) in B6D2F1 (BDF1) mice. In outline:
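Compound given to mice with transplantable tumours; survival or tumour size compared against the vehicle control group, reported as T divided by C.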

Setting [1] is: endpoint: mean tumor weight (est.), dose: 25.0 mg/kg/injection, schedule: Q01DX011 (ip), vehicle: saline with Tween-80, higher = larger tumour.
Where [2] appears, read: endpoint: mean tumor weight (est.), dose: 50.0 mg/kg/injection, schedule: Q01DX011 (ip), vehicle: saline with Tween-80, higher = larger tumour.
[3] abbreviates: endpoint: median survival time, dose: 25.0 mg/kg/injection, schedule: Q01DX011 (ip), vehicle: saline with Tween-80, higher = longer survival.

Molecules are shown by their SMILES. “And” between values parts separate entries of the source, which are not always exact repeats. Equal values may be shown once. Records with an inconclusive call do not appear.

For `CCCCCCCCCCCCCCCC[N+](C)(C)c1nc(Cl)nc(Cl)n1`, the T/C by setting is: (endpoint: mean tumor weight (est.), dose: 7.5 mg/kg/injection, schedule: Q01DX011 (ip), vehicle: saline, higher = larger tumour) 92 % of control; (endpoint: mean tumor weight (est.), dose: 15.0 mg/kg/injection, schedule: Q01DX011 (ip), vehicle: saline, higher = larger tumour) 65 % of control; (endpoint: median survival time, dose: 7.5 mg/kg/injection, schedule: Q01DX011 (ip), vehicle: saline, higher = longer survival) 106 % of control; (endpoint: median survival time, dose: 15.0 mg/kg/injection, schedule: Q01DX011 (ip), vehicle: saline, higher = longer survival) 112 % of control.
Take `C[C@]12C=CC(=O)C=C1CC[C@@H]1[C@@H]2C(=O)C[C@@]2(C)[C@H]1CC[C@]2(O)C(=O)CO`: the T/C (endpoint: mean tumor weight, dose: 23.0 mg/kg/injection, schedule: Q01DX009 (ip), vehicle: water, higher = larger tumour) was 70 % of control; the T/C (endpoint: mean tumor weight, dose: 25.0 mg/kg/injection, schedule: Q01DX011 (ip), vehicle: saline, higher = larger tumour) was 45 % of control; the T/C (endpoint: mean tumor weight, dose: 39.0 mg/kg/injection, schedule: Q01DX009 (ip), vehicle: water, higher = larger tumour) was 50 % of control; the T/C (endpoint: mean tumor weight, dose: 50.0 mg/kg/injection, schedule: Q01DX011 (ip), vehicle: saline, higher = larger tumour) was 36 % of control; the T/C (endpoint: mean tumor weight, dose: 100.0 mg/kg/injection, schedule: Q01DX011 (ip), vehicle: saline, higher = larger tumour) was 17 % of control; the T/C (endpoint: mean tumor weight, dose: 200.0 mg/kg/injection, schedule: Q01DX011 (ip), vehicle: saline, higher = larger tumour) was 5 % of control. The T/C by setting is: (endpoint: median survival time, dose: 23.0 mg/kg/injection, schedule: Q01DX009 (ip), vehicle: none, higher = longer survival) 109 % of control; (endpoint: median survival time, dose: 23.0 mg/kg/injection, schedule: Q01DX009 (ip), vehicle: water, higher = longer survival) 106 % of control; (endpoint: median survival time, dose: 25.0 mg/kg/injection, schedule: Q01DX011 (ip), vehicle: carboxymethylcellulose (CMC), higher = longer survival) 106 % of control and 113 % of control; (endpoint: median survival time, dose: 25.0 mg/kg/injection, schedule: Q01DX011 (ip), vehicle: saline, higher = longer survival) 112 % of control; (endpoint: median survival time, dose: 25.0 mg/kg/injection, schedule: Q01DX011 (ip), vehicle: water, higher = longer survival) 110 % of control; (endpoint: median survival time, dose: 39.0 mg/kg/injection, schedule: Q01DX009 (ip), vehicle: none, higher = longer survival) 104 % of control. Besides, the T/C is 90 % of control (endpoint: median survival time, dose: 39.0 mg/kg/injection, schedule: Q01DX009 (ip), vehicle: water, higher = longer survival); 115 % of control and 121 % of control (endpoint: median survival time, dose: 50.0 mg/kg/injection, schedule: Q01DX011 (ip), vehicle: carboxymethylcellulose (CMC), higher = longer survival); 104 % of control (endpoint: median survival time, dose: 50.0 mg/kg/injection, schedule: Q01DX011 (ip), vehicle: saline, higher = longer survival); 108 % of control (endpoint: median survival time, dose: 50.0 mg/kg/injection, schedule: Q01DX011 (ip), vehicle: water, higher = longer survival); 118 % of control and 119 % of control (endpoint: median survival time, dose: 52.0 mg/kg/injection, schedule: Q01DX007 (sc), vehicle: saline, higher = longer survival); 95 % of control (endpoint: median survival time, dose: 65.0 mg/kg/injection, schedule: Q01DX009 (ip), vehicle: none, higher = longer survival). For the same compound, the T/C was 95 % of control and 113 % of control (endpoint: median survival time, dose: 86.0 mg/kg/injection, schedule: Q01DX007 (sc), vehicle: saline, higher = longer survival); 102 % of control (endpoint: median survival time, dose: 100.0 mg/kg/injection, schedule: Q01DX011 (ip), vehicle: saline, higher = longer survival); 94 % of control (endpoint: median survival time, dose: 100.0 mg/kg/injection, schedule: Q01DX011 (ip), vehicle: water, higher = longer survival); 46 % of control (endpoint: median survival time, dose: 108.0 mg/kg/injection, schedule: Q01DX009 (ip), vehicle: none, higher = longer survival); 105 % of control (endpoint: median survival time, dose: 144.0 mg/kg/injection, schedule: Q01DX007 (sc), vehicle: saline, higher = longer survival); 42 % of control (endpoint: median survival time, dose: 180.0 mg/kg/injection, schedule: Q01DX009 (ip), vehicle: none, higher = longer survival). Besides, the T/C (endpoint: median survival time, dose: 240.0 mg/kg/injection, schedule: Q01DX007 (sc), vehicle: saline, higher = longer survival) is 68 % of control.
Turning to `Nc1nc(Cl)nc2c1ncn2C1OC(CO)C(O)C1O` (configuration not stated), the T/C reads like this: under setting [1], 72 % of control; under setting [2], 72 % of control; (endpoint: mean tumor weight (est.), dose: 100.0 mg/kg/injection, schedule: Q01DX011 (ip), vehicle: saline with Tween-80, higher = larger tumour) 36 % of control; under setting [3], 102 % of control; (endpoint: median survival time, dose: 50.0 mg/kg/injection, schedule: Q01DX011 (ip), vehicle: saline with Tween-80, higher = longer survival) 93 % of control.
With `CCC/C(C)=N/Nc1ccccn1`, the T/C was 85 % of control (endpoint: mean tumor weight (est.), dose: 12.5 mg/kg/injection, schedule: Q01DX011 (ip), vehicle: saline with Tween-80, higher = larger tumour); 84 % of control under setting [1]; 81 % of control under setting [2]; 94 % of control (endpoint: median survival time, dose: 12.5 mg/kg/injection, schedule: Q01DX011 (ip), vehicle: saline with Tween-80, higher = longer survival); 88 % of control under setting [3].
As to `COCC(O)Cn1ccnc1[N+](=O)[O-]` (configuration not stated), the T/C runs as follows: (endpoint: median survival time, dose: 600.0 mg/kg/injection, schedule: Q01DX001 (ip), vehicle: saline, higher = longer survival) 90 % of control and 92 % of control and 96 % of control; (endpoint: median survival time, dose: 1000.0 mg/kg/injection, schedule: Q01DX001 (ip), vehicle: saline, higher = longer survival) 92 % of control and 104 % of control and 106 % of control.
On to `O=C(CCBr)N1CCN(C(=O)CCBr)CC1`, for which the T/C (endpoint: mean tumor weight, dose: 50.0 mg/kg/injection, schedule: Q01DX011 (ip), vehicle: steriod suspending solution, higher = larger tumour) was 73 % of control; the T/C (endpoint: mean tumor weight, dose: 100.0 mg/kg/injection, schedule: Q01DX011 (ip), vehicle: steriod suspending solution, higher = larger tumour) was 73 % of control; the T/C (endpoint: mean tumor weight, dose: 200.0 mg/kg/injection, schedule: Q01DX011 (ip), vehicle: steriod suspending solution, higher = larger tumour) was 37 % of control.
Consider `COc1ccc2nc3cc(Cl)ccc3c(NCCO)c2c1`, for which the T/C was 19 % of control (endpoint: mean tumor weight (est.), dose: 34.37 mg/kg/injection, schedule: Q01DX011 (ip), vehicle: saline with Tween-80, higher = larger tumour); 55 % of control (endpoint: mean tumor weight (est.), dose: 68.75 mg/kg/injection, schedule: Q01DX011 (ip), vehicle: saline with Tween-80, higher = larger tumour); 91 % of control (endpoint: median survival time, dose: 34.36 mg/kg/injection, schedule: Q01DX011 (ip), vehicle: saline with Tween-80, higher = longer survival); 96 % of control (endpoint: median survival time, dose: 68.75 mg/kg/injection, schedule: Q01DX011 (ip), vehicle: saline with Tween-80, higher = longer survival).
Turning to `OC(CBr)C(O)C(O)C(O)CBr` (configuration not stated), the T/C reads like this: (endpoint: mean tumor weight (est.), dose: 50.0 mg/kg/injection, schedule: Q01DX011 (ip), vehicle: Klucel (hydroxypropylcellulose) (HPC), higher = larger tumour) 61 % of control; (endpoint: mean tumor weight (est.), dose: 100.0 mg/kg/injection, schedule: Q01DX011 (ip), vehicle: Klucel (hydroxypropylcellulose) (HPC), higher = larger tumour) 59 % of control; (endpoint: mean tumor weight (est.), dose: 200.0 mg/kg/injection, schedule: Q01DX011 (ip), vehicle: Klucel (hydroxypropylcellulose) (HPC), higher = larger tumour) 44 % of control; (endpoint: mean tumor weight, dose: 25.0 mg/kg/injection, schedule: Q01DX011 (ip), vehicle: Klucel (hydroxypropylcellulose) (HPC), higher = larger tumour) 85 % of control; (endpoint: mean tumor weight, dose: 50.0 mg/kg/injection, schedule: Q01DX011 (ip), vehicle: Klucel (hydroxypropylcellulose) (HPC), higher = larger tumour) 70 % of control; (endpoint: mean tumor weight, dose: 100.0 mg/kg/injection, schedule: Q01DX011 (ip), vehicle: Klucel (hydroxypropylcellulose) (HPC), higher = larger tumour) 93 % of control. Besides, the T/C runs as follows: (endpoint: mean tumor weight, dose: 125.0 mg/kg/injection, schedule: Q01DX011 (ip), vehicle: Klucel (hydroxypropylcellulose) (HPC), higher = larger tumour) 101 % of control; (endpoint: mean tumor weight, dose: 200.0 mg/kg/injection, schedule: Q01DX011 (ip), vehicle: Klucel (hydroxypropylcellulose) (HPC), higher = larger tumour) 72 % of control; (endpoint: mean tumor weight, dose: 250.0 mg/kg/injection, schedule: Q01DX011 (ip), vehicle: Klucel (hydroxypropylcellulose) (HPC), higher = larger tumour) 100 % of control; (endpoint: mean tumor weight, dose: 400.0 mg/kg/injection, schedule: Q01DX011 (ip), vehicle: Klucel (hydroxypropylcellulose) (HPC), higher = larger tumour) 55 % of control; (endpoint: median survival time, dose: 25.0 mg/kg/injection, schedule: Q01DX011 (ip), vehicle: Klucel (hydroxypropylcellulose) (HPC), higher = longer survival) 94 % of control; (endpoint: median survival time, dose: 50.0 mg/kg/injection, schedule: Q01DX011 (ip), vehicle: Klucel (hydroxypropylcellulose) (HPC), higher = longer survival) 111 % of control. Also, the T/C (endpoint: median survival time, dose: 125.0 mg/kg/injection, schedule: Q01DX011 (ip), vehicle: Klucel (hydroxypropylcellulose) (HPC), higher = longer survival) is 93 % of control; the T/C (endpoint: median survival time, dose: 200.0 mg/kg/injection, schedule: Q01DX011 (ip), vehicle: Klucel (hydroxypropylcellulose) (HPC), higher = longer survival) was 97 % of control and 112 % of control; the T/C (endpoint: median survival time, dose: 250.0 mg/kg/injection, schedule: Q01DX011 (ip), vehicle: Klucel (hydroxypropylcellulose) (HPC), higher = longer survival) was 100 % of control; the T/C (endpoint: median survival time, dose: 400.0 mg/kg/injection, schedule: Q01DX011 (ip), vehicle: Klucel (hydroxypropylcellulose) (HPC), higher = longer survival) was 94 % of control.
As for `ClC1=NC(Cl)C(Cl)=N/C1=N\c1ncn[nH]1` (configuration not stated), the T/C reads like this: (endpoint: median survival time, dose: 4.0 mg/kg/injection, schedule: Q01DX011 (ip), vehicle: saline, higher = longer survival) 108 % of control; (endpoint: median survival time, dose: 8.0 mg/kg/injection, schedule: Q01DX011 (ip), vehicle: saline, higher = longer survival) 91 % of control; (endpoint: median survival time, dose: 16.0 mg/kg/injection, schedule: Q01DX011 (ip), vehicle: saline, higher = longer survival) 92 % of control.
